In assay [1] the test system is Monocotyledonous and dicotyledonous test plants. As to the kind of experiment: Post-emergence herbicidal action, greenhouse pot test, sprayed at the 2- to 3-leaf stage, 9-level rating after 2 to 3 weeks. The format is in vivo. The arrangement: key: 9-level scale: 1 = complete damage, 9 = no effect. As to conditions: 250 g/ha, rated after 2 to 3 weeks, 9-level scale. The procedure, abridged: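 Plants grown in standard soil in pots; test substances sprayed at the 2- to 3-leaf stage at optimum dosage (500 l water/ha) as aqueous suspension or emulsion from formulated concentrates. Plants then kept in the greenhouse under optimum conditions; rated after 2 to 3 weeks on a 9-level scale (1=complete damage, 9=no effect).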

Assay [2] shares this test system. The assay can be described thus: Herbicidal action before emergence of the plants (pre-emergence action), greenhouse pot test, 9-level rating after 4 weeks. The format is in vivo. More on the design: key: 9-level scale: 1 = complete damage, 9 = no effect. The note with it: 250 g/ha, rated after 4 weeks, 9-level scale. The procedure, abridged:
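Compounds applied pre-emergence as a spray (500 l water/ha) of aqueous suspension or emulsion onto soil immediately after sowing mono- and dicot species in pots. Greenhouse-grown; damage rated after 4 weeks on a 9-level scale (1=complete damage, 9=no effect).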

As to `COCCOCc1nc(C(F)(F)F)ccc1C(=O)C1=C(O)C(C)(C)C(=O)C(C)(C)C1=O` [A10-B39], in assay [1], the “Post-emergence action rating, Abutilon” value is 1; the “Post-emergence action rating, Amaranth” value worked out at 1; the “Post-emergence action rating, Chenop.” value was found to be 1; the “Post-emergence action rating, Digitaria” value is 3. In addition, in assay [1], the “Post-emergence action rating, Echino.” value is given as 3; the “Post-emergence action rating, Ipopur.” value was 2; the “Post-emergence action rating, Panicum” value turned out to be 1; the “Post-emergence action rating, Xanth.” value is given as 2. Further, in assay [2], the “Pre-emergence action rating, Abutilon” value was found to be 1; the “Pre-emergence action rating, Amaranthus” value was 1; the “Pre-emergence action rating, Chenop.” value is on record as 1; the “Pre-emergence action rating, Digitaria” value is on record as 1. In assay [2], the “Pre-emergence action rating, Echino.” value was found to be 1 and the “Pre-emergence action rating, Panicum” value is 1.

Take `COCCOCc1nc(C(F)(F)F)ccc1C(=O)C1=C(O)CCC(C)(C)C1=O` [A10-B3]: in assay [1], the “Post-emergence action rating, Abutilon” value was 1; the “Post-emergence action rating, Amaranth” value worked out at 1; the “Post-emergence action rating, Chenop.” value came to 1; the “Post-emergence action rating, Digitaria” value was 1. Further, in assay [1], the “Post-emergence action rating, Echino.” value was determined as 3; the “Post-emergence action rating, Ipopur.” value is recorded as 2; the “Post-emergence action rating, Panicum” value turned out to be 1; the “Post-emergence action rating, Xanth.” value turned out to be 1. For the same compound, in assay [2], the “Pre-emergence action rating, Abutilon” value turned out to be 1; the “Pre-emergence action rating, Amaranthus” value stood at 1; the “Pre-emergence action rating, Chenop.” value is 1; the “Pre-emergence action rating, Digitaria” value was determined as 1. In addition, in assay [2], the “Pre-emergence action rating, Echino.” value stood at 1 and the “Pre-emergence action rating, Panicum” value was 1.

For the compound `COCCOCc1nc(C(F)(F)F)ccc1C(=O)c1c(C)nn(C)c1O` [A10-C2 (H6), (5-Hydroxy-1,3-dimethyl-1H-pyrazol-4-yl)-[2-(2-methoxyethoxymethyl)-6-trifluoromethylpyridin-3-yl]methanone], in assay [1], the “Post-emergence action rating, Abutilon” value came out at 2; the “Post-emergence action rating, Amaranth” value is listed as 1; the “Post-emergence action rating, Chenop.” value was determined as 1; the “Post-emergence action rating, Digitaria” value was determined as 4. For the same compound, in assay [1], the “Post-emergence action rating, Echino.” value is given as 3; the “Post-emergence action rating, Ipopur.” value was 3; the “Post-emergence action rating, Panicum” value was found to be 2; the “Post-emergence action rating, Xanth.” value worked out at 1. Moreover, in assay [2], the “Pre-emergence action rating, Abutilon” value amounted to 1; the “Pre-emergence action rating, Amaranthus” value was determined as 2; the “Pre-emergence action rating, Chenop.” value was found to be 1; the “Pre-emergence action rating, Digitaria” value is 3. Further, in assay [2], the “Pre-emergence action rating, Echino.” value stood at 3 and the “Pre-emergence action rating, Panicum” value came to 3.

Take `CC#CCOCc1nc(C(F)(F)F)ccc1C(=O)c1cnn(C)c1O` [A20-C5]: in assay [1], the “Post-emergence action rating, Abutilon” value is reported as 3; the “Post-emergence action rating, Amaranth” value is 2; the “Post-emergence action rating, Chenop.” value was 1; the “Post-emergence action rating, Digitaria” value was determined as 3. For the same compound, in assay [1], the “Post-emergence action rating, Echino.” value was determined as 4; the “Post-emergence action rating, Ipopur.” value came out at 3; the “Post-emergence action rating, Panicum” value was determined as 2; the “Post-emergence action rating, Xanth.” value was determined as 3. Moreover, in assay [2], the “Pre-emergence action rating, Abutilon” value is listed as 1; the “Pre-emergence action rating, Amaranthus” value is recorded as 1; the “Pre-emergence action rating, Chenop.” value is given as 1; the “Pre-emergence action rating, Digitaria” value turned out to be 2. For the same compound, in assay [2], the “Pre-emergence action rating, Echino.” value is 2 and the “Pre-emergence action rating, Panicum” value is listed as 1.

As to `COCCOCc1nc(C(F)(F)F)ccc1C(=O)C1=C(O)C(C)(C)ON(C)C1=O` [A10-B25], in assay [1], the “Post-emergence action rating, Abutilon” value is 3; the “Post-emergence action rating, Amaranth” value is recorded as 2; the “Post-emergence action rating, Chenop.” value came out at 1; the “Post-emergence action rating, Digitaria” value came to 4. In assay [1], the “Post-emergence action rating, Echino.” value turned out to be 4; the “Post-emergence action rating, Ipopur.” value stood at 3; the “Post-emergence action rating, Panicum” value was 3; the “Post-emergence action rating, Xanth.” value turned out to be 3. In assay [2], the “Pre-emergence action rating, Abutilon” value stood at 1; the “Pre-emergence action rating, Amaranthus” value turned out to be 1; the “Pre-emergence action rating, Chenop.” value was 1; the “Pre-emergence action rating, Digitaria” value was found to be 1. Besides, in assay [2], the “Pre-emergence action rating, Echino.” value is given as 2 and the “Pre-emergence action rating, Panicum” value was 1.

For the compound `O=C(C1=C(O)C2CCC(C2)C1=O)c1ccc(C(F)(F)F)nc1COCC1CCCCO1` (centres unmarked) [A63-B52], in assay [1], the “Post-emergence action rating, Abutilon” value stood at 2; the “Post-emergence action rating, Amaranth” value turned out to be 2; the “Post-emergence action rating, Chenop.” value is on record as 2; the “Post-emergence action rating, Digitaria” value came to 2. Also, in assay [1], the “Post-emergence action rating, Echino.” value turned out to be 2; the “Post-emergence action rating, Ipopur.” value is recorded as 2; the “Post-emergence action rating, Panicum” value is given as 1; the “Post-emergence action rating, Xanth.” value worked out at 2. Further, in assay [2], the “Pre-emergence action rating, Abutilon” value was 5; the “Pre-emergence action rating, Amaranthus” value is on record as 3; the “Pre-emergence action rating, Digitaria” value came to 3; the “Pre-emergence action rating, Echino.” value is reported as 1. In addition, in assay [2], the “Pre-emergence action rating, Panicum” value was 2.

On to `O=C(OCc1nc(C(F)(F)F)ccc1C(=O)C1=C(O)C2CCC(C2)C1=O)c1ccccc1` (centres unmarked) [A844-B52], for which, in assay [1], the “Post-emergence action rating, Abutilon” value turned out to be 3; the “Post-emergence action rating, Amaranth” value stood at 3; the “Post-emergence action rating, Chenop.” value was found to be 1; the “Post-emergence action rating, Digitaria” value worked out at 3. In assay [1], the “Post-emergence action rating, Echino.” value turned out to be 4; the “Post-emergence action rating, Ipopur.” value is listed as 3; the “Post-emergence action rating, Panicum” value is listed as 2; the “Post-emergence action rating, Xanth.” value was 3. In assay [2], the “Pre-emergence action rating, Abutilon” value stood at 1; the “Pre-emergence action rating, Amaranthus” value is 1; the “Pre-emergence action rating, Chenop.” value came out at 1; the “Pre-emergence action rating, Digitaria” value was determined as 2. Further, in assay [2], the “Pre-emergence action rating, Echino.” value came out at 2 and the “Pre-emergence action rating, Panicum” value came to 1.

On to `N#CCCOCc1nc(C(F)(F)F)ccc1C(=O)C1=C(O)C2CCC(C2)C1=O` (centres unmarked) [A849-B52], for which, in assay [1], the “Post-emergence action rating, Abutilon” value turned out to be 2; the “Post-emergence action rating, Amaranth” value stood at 2; the “Post-emergence action rating, Chenop.” value was found to be 2; the “Post-emergence action rating, Digitaria” value came out at 2. In assay [1], the “Post-emergence action rating, Echino.” value was 3; the “Post-emergence action rating, Ipopur.” value was determined as 2; the “Post-emergence action rating, Panicum” value came out at 2; the “Post-emergence action rating, Xanth.” value was determined as 2. Besides, in assay [2], the “Pre-emergence action rating, Abutilon” value turned out to be 2; the “Pre-emergence action rating, Amaranthus” value is 1; the “Pre-emergence action rating, Chenop.” value stood at 1; the “Pre-emergence action rating, Digitaria” value is given as 2. Besides, in assay [2], the “Pre-emergence action rating, Echino.” value was 2 and the “Pre-emergence action rating, Panicum” value stood at 1.

On to `CCOCCOCc1nc(C(F)(F)F)ccc1C(=O)c1cnn(C)c1O` [A11-C5], for which, in assay [1], the “Post-emergence action rating, Abutilon” value is recorded as 2; the “Post-emergence action rating, Amaranth” value came out at 2; the “Post-emergence action rating, Chenop.” value was 1; the “Post-emergence action rating, Digitaria” value is 2. Besides, in assay [1], the “Post-emergence action rating, Echino.” value is given as 2; the “Post-emergence action rating, Ipopur.” value is listed as 2; the “Post-emergence action rating, Panicum” value was found to be 1; the “Post-emergence action rating, Xanth.” value was determined as 2. Moreover, in assay [2], the “Pre-emergence action rating, Abutilon” value is recorded as 1; the “Pre-emergence action rating, Amaranthus” value amounted to 1; the “Pre-emergence action rating, Chenop.” value is recorded as 1; the “Pre-emergence action rating, Digitaria” value amounted to 2. Also, in assay [2], the “Pre-emergence action rating, Echino.” value is given as 1 and the “Pre-emergence action rating, Panicum” value stood at 1.

As for `CC#CCOCc1nc(C(F)(F)F)ccc1C(=O)C1=C(O)C2CCC(C2)C1=O` (centres unmarked) [A20-B52], in assay [1], the “Post-emergence action rating, Abutilon” value is listed as 2; the “Post-emergence action rating, Amaranth” value was 2; the “Post-emergence action rating, Chenop.” value was found to be 1; the “Post-emergence action rating, Digitaria” value was determined as 2. Further, in assay [1], the “Post-emergence action rating, Echino.” value is recorded as 2; the “Post-emergence action rating, Ipopur.” value was 2; the “Post-emergence action rating, Panicum” value is reported as 1; the “Post-emergence action rating, Xanth.” value turned out to be 2. In addition, in assay [2], the “Pre-emergence action rating, Abutilon” value stood at 3; the “Pre-emergence action rating, Amaranthus” value came to 3; the “Pre-emergence action rating, Digitaria” value worked out at 1; the “Pre-emergence action rating, Echino.” value amounted to 1. In addition, the “Pre-emergence action rating, Panicum” value in assay [2] is listed as 1.

Consider `CCC(OC)OCCOCc1nc(C(F)(F)F)ccc1C(=O)C1=C(O)C2CCC(C2)C1=O` (centres unmarked) [A838-B52], for which, in assay [1], the “Post-emergence action rating, Abutilon” value is given as 1; the “Post-emergence action rating, Amaranth” value was 2; the “Post-emergence action rating, Chenop.” value is listed as 1; the “Post-emergence action rating, Digitaria” value is listed as 2. In assay [1], the “Post-emergence action rating, Echino.” value was found to be 3; the “Post-emergence action rating, Ipopur.” value amounted to 2; the “Post-emergence action rating, Panicum” value was found to be 2; the “Post-emergence action rating, Xanth.” value worked out at 2. In addition, in assay [2], the “Pre-emergence action rating, Abutilon” value is 1; the “Pre-emergence action rating, Amaranthus” value is recorded as 1; the “Pre-emergence action rating, Chenop.” value was determined as 1; the “Pre-emergence action rating, Digitaria” value came out at 3. Further, in assay [2], the “Pre-emergence action rating, Echino.” value was found to be 2 and the “Pre-emergence action rating, Panicum” value was found to be 1.
